Results published in PMC11582173, “Synthesis, cytotoxicity, anti-inflammatory, anti-metastatic and anti-oxidant activities of novel chalcones incorporating 2-phenoxy-N-arylacetamide and thiophene moieties: induction of apoptosis in MCF7 and HEP2 cells” (Naunyn-Schmiedeberg's Archives of Pharmacology, 2024).
Several values for one entry are separate records, joined by “and”; a condition that tells them apart may be missing. Identical values can stand only once.

Key:
MMP9 = assay: ELISA, MMP9 concentration; type: cell-based, human
Procedure: (§1) The concentrations of matrix metalloproteinase-2 (MMP2), matrix metalloproteinase-9 (MMP9), Bcl2, BAX, P53, Malondialdehyde (MDA), Glutathione (GSH), caspase 8, caspase 9 and IL-6 were measured quantitatively in 5c treated MCF7 and HEP2 cells using ELISA (Enzyme-Linked Immunosorbent Assay) (Table 4). Gelatinases are a collective word for MMP-2 and MMP-9, where MMP-2 is gelatinase-A and MMP-9 is gelatinase-B. Solid tumor invasion, metastasis, and angiogenesis have long been linked to gelatinases (Das et al. [2021]). […] Bcl2 is a crucial protein that targets apoptosis inhibition. It is regarded as a predictive biomarker or therapeutic target in the diagnosis of cancer due to its broad expression in a variety of cancers (Porter et al. [2009]). […] The pro-apoptotic protein BAX permeabilizes the mitochondrial outer membrane by changing from a cytosolic monomer to a hazardous oligomer triggering the apoptosis process (Fulda and Debatin [2006]). […] P53 transcription factor performs an essential tumor suppressor role by coordinating a wide range of physiological responses, including DNA repair, cell cycle arrest, cellular senescence, cell death, cell differentiation, and metabolism (Liebl and Hofmann [2021]). It was activated in MCF7 and HEP2-treated cells with values (4.28 and 3.109 ng/mL), respectively, compared to their controls (3.44 and 2.06 ng/mL). […]

Bcl2 = assay: ELISA, Bcl2 concentration; type: cell-based, human
Procedure: as §1

COc1ccc(NC(=O)COc2ccc(C=CC(=O)c3cccs3)cc2)cc1 [Compound 5c, N-(4-Methoxyphenyl)-2-(4-(3-oxo-3-(thiophen-2-yl)prop-1-en-1-yl)phenoxy)acetamide]
MMP9 concentration (MMP9; 5c treated HEP2 cells, untreated 564.8±41.45): 236.5 ng/mL and 236.5 ± 24.87 ng/mL
MMP9 concentration (MMP9; 5c treated MCF7 cells, untreated 588.28±24.87): 271.6 ng/mL and 271.6 ± 58.04 ng/mL
Bcl2 concentration (Bcl2; 5c treated HEP2 cells, untreated 2299.4±170.35): 1809.34 pg/mL and 1809.34 ± 27.45 pg/mL
Bcl2 concentration (Bcl2; 5c treated MCF7 cells, untreated 2479.8±17.08): 2089.96 pg/mL and 2089.96 ± 17.97 pg/mL
